The test has as its target T1, human FFAR1 (GPR40) (Homo sapiens, UniProt O14842).
T1 construct: Flag; expressed in transfected cells; host or cells: HEK293T
Description: NFAT-RE-based reporter gene activity assay (Dual-Glo luciferase) for GPR40 agonistic activity in co-transfected HEK293T cells. The test is classed as cell-based. The conditions noted are these: 4-hour treatment; for Efficacy (%): class symbols. Summed up:
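HEK293T cells co-transfected with human FFAR1, NFAT-RE firefly luciferase and TK-Renilla plasmids; 24 h later treated 4 h with 10 half-log compound dilutions from 1 µM. Firefly/Renilla ratio normalised to DMSO; EC50 from four-parameter fit.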
In general terms: A reporter such as luciferase makes a cellular process visible.

pEC50: −log10 of the molar value. Some results are limits rather than exact numbers.

Experimental findings from patent EP4682145A1, “BENZOHETEROCYCLIC COMPOUND, AND PREPARATION METHOD THEREFOR AND USE THEREOF” (Cascade Pharmaceuticals, Inc., priority 2023, dated 2024) are described below.

As usually defined, the pEC50 is the EC50 on a negative log10 scale, so that one unit is a factor of ten. Low values mean a high EC50, high ones a low EC50.

T1 sequence (O14842 whole entry): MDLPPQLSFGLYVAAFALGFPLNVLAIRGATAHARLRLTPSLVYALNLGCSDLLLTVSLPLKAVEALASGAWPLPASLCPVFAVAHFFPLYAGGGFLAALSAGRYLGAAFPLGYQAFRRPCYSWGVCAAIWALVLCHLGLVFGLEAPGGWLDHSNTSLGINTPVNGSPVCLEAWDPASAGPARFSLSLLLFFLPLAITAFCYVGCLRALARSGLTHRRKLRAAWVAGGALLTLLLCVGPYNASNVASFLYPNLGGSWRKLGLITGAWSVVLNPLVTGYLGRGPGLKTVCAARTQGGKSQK

With `COc1cccc(N2CCC(c3oc4cc([C@@H](CC(=O)O)C5CC5)ccc4c3C(=O)Nc3cc(C)ccc3OC)CC2)c1` [Compound 272], the pEC50 was 7.00 to 8.00 and the “Efficacy (%)” value is reported as “††† (Efficacy (%) > 150)”.

As to `COc1cccc(N2CCC(c3oc4cc([C@@H](CC(=O)O)C5CC5)ccc4c3C(=O)Nc3cc(C)ccc3Br)CC2)c1` [Compound 273], the negative logarithm of the EC50 (pEC50) is at least 8.00 and the “Efficacy (%)” value is “†† (150 ≥ Efficacy (%) > 100)”.

For the compound `COc1cccc(N2CCC(c3oc4cc([C@@H](CC(=O)O)C5CC5)ccc4c3C(=O)N(C)c3cc([N+](=O)[O-])ccc3Cl)CC2)c1` [Compound 274], the pEC50 is 6.30 to 7.00 and the “Efficacy (%)” value is “†† (150 ≥ Efficacy (%) > 100)”.

In the case of `COc1cccc(N2CCC(c3oc4cc([C@@H](CC(=O)O)C5CC5)ccc4c3C(=O)Nc3cc(C(F)(F)F)ccc3Cl)CC2)c1` [Compound 275], the pEC50 is 7.00 to 8.00 and the “Efficacy (%)” value is “††† (Efficacy (%) > 150)”.

For the compound `COc1cccc(N2CCC(c3oc4cc([C@@H](CC(=O)O)C5CC5)ccc4c3C(=O)Nc3cc([N+](=O)[O-])ccc3Cl)CC2)c1` [Compound 276], the pEC50 was 7.00 to 8.00 and the “Efficacy (%)” value is on record as “†† (150 ≥ Efficacy (%) > 100)”.

Take `COc1cccc(N2CCC(c3oc4cc([C@@H](CC(=O)O)C5CC5)ccc4c3C(=O)Nc3cc(OC(F)(F)F)ccc3Cl)CC2)c1` [Compound 277]: the pEC50 was under 6.30 and the “Efficacy (%)” value was “††††”.

`CCc1ccc(Cl)c(NC(=O)c2c(C3CCN(c4cccc(OC)c4)CC3)oc3cc([C@@H](CC(=O)O)C4CC4)ccc23)c1` [Compound 278]: the pEC50 is over 8.00 and the “Efficacy (%)” value is “††††”.

Consider `COc1cccc(N2CCC(c3oc4cc([C@@H](CC(=O)O)C5CC5)ccc4c3C(=O)Nc3cc(C4CC4)ccc3Cl)CC2)c1` [Compound 279], for which the pEC50 was under 6.30 and the “Efficacy (%)” value is recorded as “†† (150 ≥ Efficacy (%) > 100)”.

`COc1cccc(N2CCC(c3oc4cc([C@@H](CC(=O)O)C5CC5)ccc4c3C(=O)Nc3cc(-c4ccccc4)ccc3Cl)CC2)c1` [Compound 280]: the pEC50 is 6.30 to 7.00 and the “Efficacy (%)” value is given as “†† (150 ≥ Efficacy (%) > 100)”.

With `COc1cccc(N2CCC(c3oc4cc([C@@H](CC(=O)O)C5CC5)ccc4c3C(=O)N(C)c3cc(C(F)(F)F)ccc3Cl)CC2)c1` [Compound 281], the pEC50 was 6.30 to 7.00 and the “Efficacy (%)” value is listed as “†† (150 ≥ Efficacy (%) > 100)”.

`COc1cccc(N2CCC(c3oc4cc([C@@H](CC(=O)O)C5CC5)ccc4c3C(=O)Nc3cc(C#N)ccc3Cl)CC2)c1` [Compound 282]: the pEC50 is 7.00 to 8.00 and the “Efficacy (%)” value is “†† (150 ≥ Efficacy (%) > 100)”.

With `COc1cccc(N2CCC(c3oc4cc([C@@H](CC(=O)O)C5CC5)ccc4c3C(=O)Nc3cc(C(C)=O)ccc3Cl)CC2)c1` [Compound 283], the pEC50 was 7.00 to 8.00 and the “Efficacy (%)” value is on record as “††† (Efficacy (%) > 150)”.

In the case of `COc1cccc(N2CCC(c3oc4cc([C@@H](CC(=O)O)C5CC5)ccc4c3C(=O)Nc3cc(N4CCCCC4)ccc3Cl)CC2)c1` [Compound 284], the pEC50 was at least 8.00 and the “Efficacy (%)” value is on record as “†† (150 ≥ Efficacy (%) > 100)”.

In the case of `COc1cccc(N2CCC(c3oc4cc([C@@H](CC(=O)O)C5CC5)ccc4c3C(=O)Nc3cc(N4CCOCC4)ccc3Cl)CC2)c1` [Compound 285], the pEC50 is at least 8.00 and the “Efficacy (%)” value is listed as “†† (150 ≥ Efficacy (%) > 100)”.

`COc1cccc(N2CCC(c3oc4cc([C@@H](CC(=O)O)C5CC5)ccc4c3C(=O)Nc3cc(NC(C)=O)ccc3Cl)CC2)c1` [Compound 286]: the pEC50 is 6.30 to 7.00 and the “Efficacy (%)” value is reported as “†† (150 ≥ Efficacy (%) > 100)”.

Regarding `COc1cccc(N2CCC(c3oc4cc(C(CC(=O)O)C5CC5)ccc4c3C(=O)Nc3c(F)cc(F)cc3F)CC2)c1` (centres unmarked) [Compound 288], the pEC50 was 6.30 to 7.00 and the “Efficacy (%)” value is listed as “†† (150 ≥ Efficacy (%) > 100)”.
